Values of other authors in patent publication US20240041861A1, “COMPOSITIONS AND METHODS FOR TREATMENT AND PROPHYLAXIS OF VIRAL INFECTIONS” (priority 2020, published 2024).
Values after ≈ are worked out from the molar mass of the structure shown. Like-named read-outs stand apart in the source and are kept apart here.

Assays:
[1] = human, in vivo
[2] = tested on: NS3/4A HCV protease GT1b
[3] = tested on: replicon GT1b
[4] = not given; remark: listed apart in the source
[5] = in vivo
[6] = in vivo; remark: listed apart in the source
[7] = not given; remark: listed apart in the source
[8] = target: PDE5 (Homo sapiens, UniProt O76074)

CC(C)c1nc(CN(C)C(=O)N[C@H](C(=O)N[C@@H](Cc2ccccc2)C[C@H](O)[C@H](Cc2ccccc2)NC(=O)OCc2cncs2)C(C)C)cs1 [ritonavir]
plasma levels relative to those obtained after the ritonavir dose of 600 mg twice daily [1]: less than 7%

CC(C)Nc1cccnc1N1CCN(C(=O)c2cc3cc(NS(C)(=O)=O)ccc3[nH]2)CC1 [delavirdine free base]
solubility (pH 1): 2940 µg/mL (≈ 6440 µM) | solubility (pH 2): 295 µg/mL (≈ 646 µM) | solubility (pH 7.4): 0.81 µg/mL (≈ 1.77 µM)

CC(C)(C)OC(=O)N[C@H]1CCCCC/C=C\[C@@H]2C[C@@]2(C(=O)NS(=O)(=O)C2CC2)NC(=O)[C@@H]2C[C@@H](OC(=O)N3Cc4cccc(F)c4C3)CN2C1=O [Danoprevir]
IC50 [2]: 0.2 to 0.4 nM | EC50 [3]: 1.6 nM

CCCc1nn(C)c2c(=O)[nH]c(-c3cc(S(=O)(=O)N4CCN(C)CC4)ccc3OCC)nc12 [sildenafil]
bound to plasma proteins [4]: approximately 96% | mean steady state volume of distribution (Vss) [5]: 105 L | terminal half lives [5]: about 4 hours

CCN(CCO)CCCC(C)Nc1ccnc2cc(Cl)ccc12 (centres unmarked) [hydroxychloroquine]
fraction of the dose absorbed [6]: 30-100% | renal clearance of unchanged drug [6]: 16-30% | absorption half-life ([6]; po): 0.12 to 0.17 days | terminal half-life ([6]; po): 40 to 50 days | time of peak plasma levels ([6]; po): 3 to 4 h | half-life ([7]; in vivo): about 40 days | mean fraction of the dose absorbed ([7]; in vivo): 0.74 | dose excreted as the parent drug in urine ([7]; in vivo, po): approximately 10% | half-life ([7]; in vivo, po, 200 mg): 22.4 days | mean peak blood concentration ([7]; single 200 mg oral dose of PLAQUENIL, healthy males, blood): 129.6 ng/mL | half-life ([7]; single 200 mg oral dose, healthy males, plasma): 123.5 days

CCCc1nn(C)c2c(=O)[nH]c(-c3cc(S(=O)(=O)N4CCNCC4)ccc3OCC)nc12 [N-desmethyl metabolite]
bound to plasma proteins [4]: approximately 96% | in vitro potency for PDE5 relative to the parent drug [8]: approximately 50% | terminal half lives [5]: about 4 hours
